Measured values taken from PMC7143538, “New Thiodiketopiperazine and 3,4-Dihydroisocoumarin Derivatives from the Marine-Derived Fungus Aspergillus terreus” (Marine Drugs, 2020).

Target: T1, protein tyrosine phosphatase 1 B (PTP1B) (Homo sapiens, UniProt P18031)
T1 construct: gene PTPN1
T1 sequence (P18031 1-435): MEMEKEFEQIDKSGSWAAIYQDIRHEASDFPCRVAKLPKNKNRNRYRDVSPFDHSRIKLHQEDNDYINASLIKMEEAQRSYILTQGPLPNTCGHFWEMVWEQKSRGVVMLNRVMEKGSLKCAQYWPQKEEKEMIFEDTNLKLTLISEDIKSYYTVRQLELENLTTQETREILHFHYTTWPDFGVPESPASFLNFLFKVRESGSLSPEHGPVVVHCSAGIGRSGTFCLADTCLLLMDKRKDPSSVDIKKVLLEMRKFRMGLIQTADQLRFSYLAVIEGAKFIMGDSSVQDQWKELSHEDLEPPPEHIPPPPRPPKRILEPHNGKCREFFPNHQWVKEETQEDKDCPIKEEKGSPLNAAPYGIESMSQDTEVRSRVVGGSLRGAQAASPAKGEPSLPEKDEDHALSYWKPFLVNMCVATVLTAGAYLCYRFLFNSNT
Assay: pNPP phosphatase assay, human recombinant PTP1B, absorbance at […] nm
Format: biochemical

Structure (SMILES) | IC50
CS[C@@]1(Cc2ccccc2)NC(=O)[C@@](Cc2ccccc2O)(SC)NC1=O [compound 3, emethacin C] | 12.3 µM
CS[C@@]12CC3=CC=C[C@H](OC(C)=O)[C@H]3N1C(=O)[C@]1(SC)CC3=COC=C[C@H](OC(C)=O)[C@H]3N1C2=O [compound 5, bisdethiobis(methylsulfanyl)acetylapoaranotin] | 25.7 µM
CS[C@@]12CC3=COC=C[C@H](OC(C)=O)[C@H]3N1C[C@]1(SC)CC3=COC=C[C@H](O)[C@H]3N1C2 [compound 7, alternarosin A] | 24.3 µM
